{"source": "ChEMBL document CHEMBL1201862", "about": "“PubChem BioAssay data set” (2004)", "assay_in_all_cases": "DTP human tumour cell line panel, 48 h", "key": {"[1]": {"test_system": "SK-MEL-2"}, "[2]": {"test_system": "SF-268"}, "[3]": {"test_system": "HCT-15"}, "[4]": {"test_system": "KM12"}, "[5]": {"test_system": "IGROV-1"}, "[6]": {"test_system": "MOLT-4"}, "[7]": {"test_system": "M19-MEL"}, "[8]": {"test_system": "HOP-18"}, "[9]": {"test_system": "SF-539"}, "[10]": {"test_system": "NCI-H460"}, "[11]": {"test_system": "XF498"}, "[12]": {"test_system": "RXF 393"}, "[13]": {"test_system": "K562"}, "[14]": {"test_system": "HCC 2998"}, "[15]": {"test_system": "SNB-75"}, "[16]": {"test_system": "SW-620"}, "[17]": {"test_system": "KM-20L2"}, "[18]": {"test_system": "HCT-116"}, "[19]": {"test_system": "ACHN"}, "[20]": {"test_system": "SK-MEL-28"}, "[21]": {"test_system": "NCI-H23"}, "[22]": {"test_system": "DLD-1"}, "[23]": {"test_system": "RPMI-8226"}, "[24]": {"test_system": "786-0"}, "[25]": {"test_system": "RXF 631"}, "[26]": {"test_system": "TK-10"}, "[27]": {"test_system": "HOP-92"}, "[28]": {"test_system": "LOX IMVI"}, "[29]": {"test_system": "A549"}, "[30]": {"test_system": "OVCAR-8"}, "[31]": {"test_system": "SNB-19"}, "[32]": {"test_system": "OVCAR-3"}, "[33]": {"test_system": "SK-MEL-5"}, "[34]": {"test_system": "DMS-273"}, "[35]": {"test_system": "SNB-78"}, "[36]": {"test_system": "NCI-H522"}, "[37]": {"test_system": "CAKI-1"}, "[38]": {"test_system": "LXFL 529"}, "[39]": {"test_system": "SR"}, "[40]": {"test_system": "UO-31"}, "[41]": {"test_system": "M14"}, "[42]": {"test_system": "SN12C"}, "[43]": {"test_system": "CCRF-CEM"}, "[44]": {"test_system": "NCI-H226"}, "[45]": {"test_system": "HOP-62"}, "[46]": {"test_system": "EKVX"}, "[47]": {"test_system": "A498"}, "[48]": {"test_system": "HL-60"}, "[49]": {"test_system": "OVCAR-4"}, "[50]": {"test_system": "HT-29"}, "[51]": {"test_system": "COLO 205"}, "[52]": {"test_system": "DMS-114"}, "[53]": {"test_system": "U-251"}, "[54]": {"test_system": "UACC-62"}, "[55]": {"test_system": "SF-295"}, "[56]": {"test_system": "SK-OV-3"}, "[57]": {"test_system": "Malme-3M"}, "[58]": {"test_system": "OVCAR-5"}, "[59]": {"test_system": "UACC-257"}}, "note": "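Values below derive from 48-hour exposures of cells grown in 96-well plates, with endpoints linearly interpolated between the two concentrations bracketing the appropriate inhibition level. GI50: concentration for 50% inhibition of growth.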 Active and inactive are the calls of the source. No stated cut-off is given here; in the data, active = GI50 up to about 1.1 µM and inactive = higher.", "data": [{"molecule": "COc1ccc(C2=NOP(c3ccccc3)(c3ccccc3)(c3ccccc3)C2)cc1", "values": [{"measurement": "GI50", "setting": "[1]", "value": "7.08 µM (inactive)"}, {"measurement": "GI50", "setting": "[2]", "value": "40.4 µM (inactive)"}, {"measurement": "GI50", "setting": "[3]", "value": 20.4, "unit": "µM"}, {"measurement": "GI50", "setting": "[4]", "value": "34.1 µM (inactive)"}, {"measurement": "GI50", "setting": "[5]", "value": "3.35 µM (inactive)"}, {"measurement": "GI50", "setting": "[6]", "value": "7.43 µM (inactive)"}, {"measurement": "GI50", "setting": "[7]", "value": "21.7 µM (inactive)"}, {"measurement": "GI50", "setting": "[8]", "value": "24.9 µM (inactive)"}, {"measurement": "GI50", "setting": "[9]", "value": "29.7 µM (inactive)"}, {"measurement": "GI50", "setting": "[10]", "value": "9.31 µM (inactive)"}, {"measurement": "GI50", "setting": "[11]", "value": "20.7 µM (inactive)"}, {"measurement": "GI50", "setting": "[12]", "value": "28.9 µM (inactive)"}, {"measurement": "GI50", "setting": "[13]", "value": "4.25 µM (inactive)"}, {"measurement": "GI50", "setting": "[14]", "value": "20.9 µM (inactive)"}, {"measurement": "GI50", "setting": "[15]", "value": "33 µM (inactive)"}, {"measurement": "GI50", "setting": "[16]", "value": "16.2 µM (inactive)"}, {"measurement": "GI50", "setting": "[17]", "value": "10 µM (inactive)"}, {"measurement": "GI50", "setting": "[18]", "value": "2.39 µM (inactive)"}, {"measurement": "GI50", "setting": "[19]", "value": "29.3 µM (inactive)"}, {"measurement": "GI50", "setting": "[20]", "value": "27.9 µM (inactive)"}, {"measurement": "GI50", "setting": "[21]", "value": "19.1 µM (inactive)"}, {"measurement": "GI50", "setting": "[22]", "value": "20.8 µM (inactive)"}, {"measurement": "GI50", "setting": "[23]", "value": "10.6 µM (inactive)"}, {"measurement": "GI50", "setting": "[24]", "value": "21.2 µM (inactive)"}, {"measurement": "GI50", "setting": "[25]", "value": "22.4 µM (inactive)"}, {"measurement": "GI50", "setting": "[26]", "value": "> 65.6 µM (inactive)"}, {"measurement": "GI50", "setting": "[27]", "value": "6.46 µM (inactive)"}, {"measurement": "GI50", "setting": "[28]", "value": "10.1 µM (inactive)"}, {"measurement": "GI50", "setting": "[29]", "value": "22.5 µM (inactive)"}, {"measurement": "GI50", "setting": "[30]", "value": "14.8 µM (inactive)"}, {"measurement": "GI50", "setting": "[31]", "value": "51.4 µM (inactive)"}, {"measurement": "GI50", "setting": "[32]", "value": "21.7 µM (inactive)"}, {"measurement": "GI50", "setting": "[33]", "value": "13.3 µM (inactive)"}, {"measurement": "GI50", "setting": "[34]", "value": "16.6 µM (inactive)"}, {"measurement": "GI50", "setting": "[35]", "value": "36.5 µM (inactive)"}, {"measurement": "GI50", "setting": "[36]", "value": "7.91 µM (inactive)"}, {"measurement": "GI50", "setting": "[37]", "value": "25.1 µM (inactive)"}, {"measurement": "GI50", "setting": "[38]", "value": "5.57 µM (inactive)"}, {"measurement": "GI50", "setting": "[39]", "value": "7.46 µM (inactive)"}, {"measurement": "GI50", "setting": "[40]", "value": "12.9 µM (inactive)"}, {"measurement": "GI50", "setting": "[41]", "value": "10.8 µM (inactive)"}, {"measurement": "GI50", "setting": "[42]", "value": "29.6 µM (inactive)"}, {"measurement": "GI50", "setting": "[43]", "value": "7.98 µM (inactive)"}, {"measurement": "GI50", "setting": "[44]", "value": "25.9 µM (inactive)"}, {"measurement": "GI50", "setting": "[45]", "value": "20.8 µM (inactive)"}, {"measurement": "GI50", "setting": "[46]", "value": "63.1 µM (inactive)"}, {"measurement": "GI50", "setting": "[47]", "value": "33.3 µM (inactive)"}, {"measurement": "GI50", "setting": "[48]", "value": "2.13 µM (inactive)"}, {"measurement": "GI50", "setting": "[49]", "value": "29.6 µM (inactive)"}, {"measurement": "GI50", "setting": "[50]", "value": "1.55 µM (inactive)"}, {"measurement": "GI50", "setting": "[51]", "value": "9.64 µM (inactive)"}, {"measurement": "GI50", "setting": "[52]", "value": "8.61 µM (inactive)"}, {"measurement": "GI50", "setting": "[53]", "value": "23.5 µM (inactive)"}, {"measurement": "GI50", "setting": "[54]", "value": "13.8 µM (inactive)"}, {"measurement": "GI50", "setting": "[55]", "value": "2.92 µM (inactive)"}, {"measurement": "GI50", "setting": "[56]", "value": "43.6 µM (inactive)"}, {"measurement": "GI50", "setting": "[57]", "value": "21.9 µM (inactive)"}, {"measurement": "GI50", "setting": "[58]", "value": "4.45 µM (inactive)"}, {"measurement": "GI50", "setting": "[59]", "value": "28.8 µM (inactive)"}]}]}
